Consider one compound from patent publication US12667563B2, “Prophylactic or therapeutic agent for porphyria” (TANABE PHARMA CORPORATION, priority 2020, dated 2026).

What all share (type): in vivo, human
Assay [1] relates to patients with erythropoietic protoporphyria or X-linked porphyria. As to the kind of experiment: Number of pain events recorded in electronic diary by patients during 16-week evaluation period of clinical trial. The following applies: for reduction of pain events relative to the placebo administration group: 16 weeks; for Incidence rate of pain: N 24, 16-week evaluation period (placebo 7.5). As for the experimental part:
Compound A was administered to adult male and female patients with erythropoietic protoporphyria or X-linked porphyria for 16 weeks in a randomized double-blind clinical trial. As another endpoint for the clinical effect, the number of pain events during the evaluation period of 16 weeks was recorded in an electronic diary by the patients themselves.
The incidence rates of pain during the evaluation period in the placebo administration group, the 100-mg compound A-administration group, and the 300-mg compound A-administration group were 7.5, 3.3, and 3.5, respectively.

The test system is the same in assay [2]. As to the kind of experiment: Time to occurrence of phototoxicity-related symptom in randomized double-blind clinical trial. The following applies: for Least squares mean of the length of time (in minutes) before the first occurrence of a symptom in a day: week 16. The method, then:
Compound A was administered to adult male and female patients with erythropoietic protoporphyria or X-linked porphyria for 16 weeks in a randomized double-blind clinical trial. As a primary endpoint for the clinical effect, the time to the first symptom due to exposure to light, including indirect sunlight as well as direct sunlight, during the period from 1 hour after sunrise to 1 hour before sunset was evaluated.
The baseline median of the erythrocyte protoporphyrin IX level was determined by measuring the protoporphyrin IX level in the fraction of erythrocytes in blood.
The median of the melanin density was determined h spectrophotometric measurement for the skin at the following six sites: the forehead, the left cheek, the inner side of the right upper arm, the inner side of the left forearm, the right side of the abdomen, and the left side of the hip.
The test in Example 2 was conducted in the Northern Hemisphere.

For assay [3] the test system is unchanged. The assay is described as follows: Health-related QOL: PGIC (Patient Global Impression of Change) score in clinical trial. The note with it: 7-point scale, 7 = remarkable improvement (placebo 2.9), P value <0.001. The method, then:
Compound A was administered to adult male and female patients with erythropoietic protoporphyria or X-linked porphyria for 16 weeks in a randomized double-blind clinical trial. As a secondary endpoint for the clinical effect, the PGIC (Patient Global Impression of Change) score, which is a health-related QOL, of each patient at week 16 was recorded by the patients themselves, More specifically, each patient was provided with a questionnaire for scoring the degree of improvement of the overall physical and mental health conditions on a 7-point scale.
The PGIC scores at week 16 in the placebo-administration group, the 100-mg compound A-administration group, and the 300-mg compound A-administration group were 2.9, 6.4, and 6.6, respectively.

With `COC[C@H]1CN(C(=O)[C@]2(F)CN(C3CCCC3)C[C@H]2c2ccc(OC)cc2)C[C@@H]1c1ccc(C(F)(F)F)cc1N1CCC(C(=O)O)CC1.O=P(O)(O)O` [Compound A, cocrystal containing 1-{2-[(3S,4R)-1-{[(3R,4R)-1-cyclopentyl-3-fluoro-4-(4-methoxyphenyl)pyrrolidin-3-yl]carbonyl}-4-(methoxymethyl)pyrrolidin-3-yl]-5-(trifluoromethyl)phenyl}piperidine-4-carboxylic acid and phosphoric acid], the figures for the “reduction of pain events relative to the placebo administration group” value in assay [1] (100 mg orally once daily) and in assay [1] (300 mg orally once daily) were 60% and 50%, respectively. In addition, the “Incidence rate of pain” value in assay [1] (100 mg orally once daily) was found to be 3.3; in assay [1] (300 mg orally once daily), 3.5. Besides, the “Incidence rate of pain, ratio to placebo” value is on record as 0.4 in assay [1] (100 mg orally once daily, P value 0.027) and 0.5 in assay [1] (300 mg orally once daily, P value 0.028). In addition, the “Least squares mean of the length of time (in minutes) before the first occurrence of a symptom in a day” value in assay [2] (100 mg (N = 15) vs placebo (N = 15), subgroup with initial dosing in fall or winter, P value 0.029) was 52.8 min; in assay [2] (100 mg (N = 18) vs placebo (N = 20), subgroup with initial dosing in spring or summer, P value 0.073), 54.4 min; in assay [2] (100 mg orally once daily (N = 33) vs placebo (N = 35), P value 0.008), 53.8 min; in assay [2] (300 mg (N = 16) vs placebo (N = 15), subgroup with initial dosing in fall or winter, P value <0.001), 95.8 min; in assay [2] (300 mg (N = 18) vs placebo (N = 20), subgroup with initial dosing in spring or summer, P value 0.168), 42.2 min; in assay [2] (300 mg orally once daily (N = 34) vs placebo (N = 35), P value 0.003), 62.5 min. Also, the “least squares mean of the time (in minutes) to the first occurrence of the symptom in a day” value amounted to 69.3 min in assay [2] (100 mg, patient group with baseline median erythrocyte protoporphyrin IX level not less than 1980.50 mcg/dL, P value 0.020); 23.2 min in assay [2] (100 mg, patient group with median melanin density less than 3.0915, P value 0.499); 85.0 min in assay [2] (100 mg, patient group with median melanin density not less than 3.0915, P value <0.001); 82.6 min in assay [2] (300 mg, patient group with baseline median erythrocyte protoporphyrin IX level not less than 1980.50 mcg/dL, P value 0.003); 63.7 min in assay [2] (300 mg, patient group with median melanin density less than 3.0915, P value 0.051); 80.3 min in assay [2] (300 mg, patient group with median melanin density not less than 3.0915, P value 0.002). Further, the “time to the first occurrence of the symptom in a day” value in assay [2] (patient group with baseline median erythrocyte protoporphyrin IX level less than 1980.50 mcg/dL) was “tended to be prolonged”. Further, the “Least squares mean of the PGIC scores” value in assay [3] (100 mg orally once daily, N 25, week 16) worked out at 6.4; in assay [3] (300 mg orally once daily, N 24, week 16), 6.6.
